Source: PubChem BioAssay (NCI)
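Growth conditions: 96-well plates. Treatment: test compound, 48 hours, 5 concentrations. Analysis: linear interpolation between bracketing concentrations; unreached endpoints set to highest concentration. TGI: total growth inhibition.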

Tested on: P388 leukemia
Test: NCI tumour cell line growth inhibition, 48 h

## CS(=O)(=O)OCCCNCCCOS(C)(=O)=O
  TGI: 6.52 mM
